Laboratory results: US20250213665A1, “METHODS FOR INHIBITING TRAINED IMMUNITY WITH NANOBIOLOGIC COMPOSITIONS” (Icahn School of Medicine at Mount Sinai, priority 2017, published 2025)

Experiment: Recovery and hydrolysis of the (pro-)drugs in nanobiologics
Format: physicochemical
Details: 4° C. in PBS
Protocol: From 10 mg/ml stock solutions in chloroform, 1-palmitoyl-2-oleoyl-sn-glycero-3-phosphocholine (POPC, 250 μL), 1-palmitoyl-2-hydroxy-sn-glycero-3-phosphocholine (PHPC, 65 μL), cholesterol (15 μL), tricaprylin (1000 μL) and (pro-)drug (65 μL), were combined in a 20 ml vial and dried under vacuum. The resulting film was redissolved in a acetonitrile:methanol mixture (95%: 5%, 3 mL total volume). Separately, a solution of ApoA-I protein in PBS (0.1 mg/ml) was prepared. Using a microfluidic set-up, both solutions were simultaneously injected into a herringbone mixer, with a flow rate of 0.75 ml/min for the lipid solution and a rate of 6 ml/min for the ApoA-I solution. The obtained solution was concentrated by centrifugal filtration using a […] Vivaspin tube at 4000 rpm to obtain a volume of 5 mL. […]
(Pro-)drug recovery and hydrolysis were determined using the following procedure: an aliquot (200 μL) of the particle solution was dried under vacuum, acetonitrile (600 μL) was added and the suspension was sonicated for 20 minutes. The suspension was centrifuged to precipitate any solids and the remaining solution was analyzed using HPLC; except for the malonate derivatives which were analyzed using SFC-MS, and Dimethylmalonate which was analyzed by GC-MS.

CCCCCCCCCCCCCCCCCC(=O)O[C@@H]1CC[C@@H](C[C@@H](C)[C@@H]2CC(=O)[C@H](C)/C=C(\C)[C@@H](O)[C@@H](OC)C(=O)[C@H](C)C[C@H](C)/C=C/C=C/C=C(\C)[C@@H](OC)C[C@@H]3CC[C@@H](C)[C@@](O)(O3)C(=O)C(=O)N3CCCC[C@H]3C(=O)O2)C[C@H]1OC [Cis-Rapamycin]
hydrolysis of the (pro-)drugs in the nanobiologics over time: hydrolysis was observed
